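Assay format: 96-well plates, 48-hour exposure. TGI: concentration producing complete growth inhibition.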
What was measured:
Experiment in all cases: inhibition of tumour cell growth, NCI panel, 48 h
COLO 205 colon = system: COLO 205 colon
IGROV1 ovarian = system: IGROV1 ovarian
A549 NSCLC = system: A549 NSCLC
SR leukemia = system: SR leukemia
TK-10 renal = system: TK-10 renal
RXF 393 renal = system: RXF 393 renal
PC-3 prostate = system: PC-3 prostate
OVCAR-5 ovarian = system: OVCAR-5 ovarian
HL-60(TB) leukemia = system: HL-60(TB) leukemia
T-47D breast = system: T-47D breast
NCI-H522 lung = system: NCI-H522 lung
UACC-62 melanoma = system: UACC-62 melanoma
RPMI-8226 leukemia = system: RPMI-8226 leukemia
NCI-H23 lung = system: NCI-H23 lung
MCF7 breast = system: MCF7 breast
EKVX NSCLC = system: EKVX NSCLC
MOLT-4 leukemia = system: MOLT-4 leukemia
BT-549 breast = system: BT-549 breast
DU-145 prostate = system: DU-145 prostate
M14 melanoma = system: M14 melanoma
A498 renal = system: A498 renal
CCRF-CEM leukemia = system: CCRF-CEM leukemia
NCI/ADR-RES ovarian = system: NCI/ADR-RES ovarian
SF-539 CNS = system: SF-539 CNS
HOP-92 NSCLC = system: HOP-92 NSCLC
NCI-H460 lung = system: NCI-H460 lung
SN12C renal = system: SN12C renal
UACC-257 melanoma = system: UACC-257 melanoma
CAKI-1 renal = system: CAKI-1 renal
SK-MEL-5 melanoma = system: SK-MEL-5 melanoma
HT29 colon = system: HT29 colon
SNB-75 CNS = system: SNB-75 CNS
OVCAR-4 ovarian = system: OVCAR-4 ovarian
KM12 colon = system: KM12 colon
ACHN renal = system: ACHN renal
HCT-15 colon = system: HCT-15 colon
LOX IMVI melanoma = system: LOX IMVI melanoma
HCT-116 colon = system: HCT-116 colon
HCC-2998 colon = system: HCC-2998 colon
MDA-N = system: MDA-N
K-562 leukemia = system: K-562 leukemia
SK-MEL-2 melanoma = system: SK-MEL-2 melanoma
UO-31 renal = system: UO-31 renal
MDA-MB-435 = system: MDA-MB-435
MDA-MB-231 breast = system: MDA-MB-231 breast
SF-268 CNS = system: SF-268 CNS
SK-OV-3 ovarian = system: SK-OV-3 ovarian
SK-MEL-28 melanoma = system: SK-MEL-28 melanoma
SNB-19 CNS = system: SNB-19 CNS
HOP-62 NSCLC = system: HOP-62 NSCLC
786-0 renal = system: 786-0 renal
OVCAR-8 ovarian = system: OVCAR-8 ovarian
SF-295 CNS = system: SF-295 CNS
NCI-H226 lung = system: NCI-H226 lung
HS 578T breast = system: HS 578T breast
SW-620 colon = system: SW-620 colon
OVCAR-3 ovarian = system: OVCAR-3 ovarian
U251 CNS = system: U251 CNS
MALME-3M melanoma = system: MALME-3M melanoma

COC1=CC(=O)c2c(c(-c3nc(C)cs3)cn2C)C1=O was tested, and the TGI (COLO 205 colon) was 37.6 µM, the TGI (IGROV1 ovarian) was 20.5 µM and the TGI (A549 NSCLC) was 12 µM. It also gave a TGI (SR leukemia) greater than 50.8 µM, a TGI (TK-10 renal) greater than 100 µM and a TGI (RXF 393 renal) of 77.8 µM. The TGI (PC-3 prostate) was greater than 55.4 µM, the TGI (OVCAR-5 ovarian) was greater than 43.9 µM and the TGI (HL-60(TB) leukemia) was 9.44 µM. It also gave a TGI (T-47D breast) of 53.4 µM, a TGI (NCI-H522 lung) of 7.26 µM and a TGI (UACC-62 melanoma) of 7.74 µM. For the same compound, the TGI (RPMI-8226 leukemia) was greater than 22.1 µM, the TGI (NCI-H23 lung) was 6.92 µM and the TGI (MCF7 breast) was 10.9 µM. For the same compound, the TGI (EKVX NSCLC) was 33.6 µM, the TGI (MOLT-4 leukemia) was greater than 80.9 µM and the TGI (BT-549 breast) was greater than 57.4 µM. It also gave a TGI (DU-145 prostate) of 18.3 µM, a TGI (M14 melanoma) of 7.39 µM and a TGI (A498 renal) of 28.7 µM. For the same compound, the TGI (CCRF-CEM leukemia) was 35.1 µM, the TGI (NCI/ADR-RES ovarian) was 31 µM and the TGI (SF-539 CNS) was 9.94 µM. For the same compound, the TGI (HOP-92 NSCLC) was 43.2 µM, the TGI (NCI-H460 lung) was 3.82 µM and the TGI (SN12C renal) was 27 µM. It also gave a TGI (UACC-257 melanoma) of 4.44 µM, a TGI (CAKI-1 renal) of 21.3 µM and a TGI (SK-MEL-5 melanoma) of 2.88 µM. For the same compound, the TGI (HT29 colon) was 21 µM, the TGI (SNB-75 CNS) was 5.42 µM and the TGI (OVCAR-4 ovarian) was 68.7 µM. It also gave a TGI (KM12 colon) of 26.7 µM, a TGI (ACHN renal) greater than 100 µM and a TGI (HCT-15 colon) of 14.7 µM. For the same compound, the TGI (LOX IMVI melanoma) was 22.8 µM, the TGI (HCT-116 colon) was 30.8 µM and the TGI (HCC-2998 colon) was 18 µM. For the same compound, the TGI (MDA-N) was 2.7 µM, the TGI (K-562 leukemia) was 20.6 µM and the TGI (SK-MEL-2 melanoma) was 10.8 µM. It also gave a TGI (UO-31 renal) greater than 91.2 µM, a TGI (MDA-MB-435) of 1.4 µM and a TGI (MDA-MB-231 breast) of 72.6 µM. For the same compound, the TGI (SF-268 CNS) was 39.6 µM, the TGI (SK-OV-3 ovarian) was greater than 100 µM and the TGI (SK-MEL-28 melanoma) was 16.1 µM. For the same compound, the TGI (SNB-19 CNS) was greater than 100 µM, the TGI (HOP-62 NSCLC) was 25.3 µM and the TGI (786-0 renal) was greater than 100 µM. It also gave a TGI (OVCAR-8 ovarian) greater than 49.6 µM, a TGI (SF-295 CNS) of 9.72 µM and a TGI (NCI-H226 lung) of 77.2 µM. It also gave a TGI (HS 578T breast) of 8.48 µM, a TGI (SW-620 colon) of 94.6 µM and a TGI (OVCAR-3 ovarian) of 6.09 µM. For the same compound, the TGI (U251 CNS) was greater than 100 µM.

In the case of CCCCCC#CCOC(=O)C(=[N+]=[N-])P(=O)(c1ccccc1)c1ccccc1, the TGI (IGROV1 ovarian) is reported as greater than 10 µM, the TGI (A549 NSCLC) is reported as greater than 10 µM and the TGI (SR leukemia) is reported as greater than 10 µM. It also gave a TGI (TK-10 renal) greater than 10 µM, a TGI (RXF 393 renal) greater than 10 µM and a TGI (PC-3 prostate) greater than 10 µM. It also gave a TGI (OVCAR-5 ovarian) greater than 10 µM, a TGI (HL-60(TB) leukemia) greater than 10 µM and a TGI (T-47D breast) greater than 10 µM. It also gave a TGI (UACC-62 melanoma) greater than 10 µM, a TGI (RPMI-8226 leukemia) greater than 10 µM and a TGI (NCI-H23 lung) greater than 10 µM. It also gave a TGI (MCF7 breast) greater than 10 µM, a TGI (EKVX NSCLC) greater than 10 µM and a TGI (MOLT-4 leukemia) greater than 10 µM. It also gave a TGI (BT-549 breast) greater than 10 µM, a TGI (DU-145 prostate) greater than 10 µM and a TGI (M14 melanoma) greater than 10 µM. For the same compound, the TGI (A498 renal) was greater than 10 µM, the TGI (SF-539 CNS) was greater than 10 µM and the TGI (HOP-92 NSCLC) was greater than 10 µM. For the same compound, the TGI (NCI-H460 lung) was greater than 10 µM, the TGI (SN12C renal) was greater than 10 µM and the TGI (UACC-257 melanoma) was greater than 10 µM. It also gave a TGI (SK-MEL-5 melanoma) greater than 10 µM, a TGI (HT29 colon) greater than 10 µM and a TGI (SNB-75 CNS) greater than 10 µM. For the same compound, the TGI (KM12 colon) was greater than 10 µM, the TGI (ACHN renal) was greater than 10 µM and the TGI (HCT-15 colon) was greater than 10 µM. The TGI (LOX IMVI melanoma) was greater than 10 µM, the TGI (HCT-116 colon) was greater than 10 µM and the TGI (HCC-2998 colon) was greater than 10 µM. It also gave a TGI (MDA-N) greater than 10 µM, a TGI (K-562 leukemia) greater than 10 µM and a TGI (MALME-3M melanoma) greater than 10 µM. The TGI (UO-31 renal) was greater than 10 µM, the TGI (MDA-MB-435) was greater than 10 µM and the TGI (MDA-MB-231 breast) was greater than 10 µM. The TGI (SF-268 CNS) was greater than 10 µM, the TGI (SK-OV-3 ovarian) was greater than 10 µM and the TGI (SK-MEL-28 melanoma) was greater than 10 µM. The TGI (SNB-19 CNS) was greater than 10 µM, the TGI (HOP-62 NSCLC) was greater than 10 µM and the TGI (786-0 renal) was greater than 10 µM. It also gave a TGI (OVCAR-8 ovarian) greater than 10 µM, a TGI (SF-295 CNS) greater than 10 µM and a TGI (NCI-H226 lung) greater than 10 µM. The TGI (HS 578T breast) was greater than 10 µM, the TGI (SW-620 colon) was greater than 10 µM and the TGI (OVCAR-3 ovarian) was greater than 10 µM. It also gave a TGI (U251 CNS) greater than 10 µM.

— PubChem BioAssay (NCI)
